Data published in PubChem BioAssay AID256 (DTP/NCI, 2004).
Where “and” joins values, the source holds several entries; their conditions need not be identical. Equal entries are not always repeated. Toxic doses and inconclusive results are not listed. How the source made its calls: active means survival T/C of 150% or more; inactive means T/C below 125% in these data.

Tested on: CD2F1 mice, L1210 leukemia ip, survival T/C
Assay: NCI In Vivo Anticancer Drug Screen. Data for tumor model L1210 Leukemia (intraperitoneal) in CD2F1 (CDF1) mice
Conditions: higher = longer survival
In short: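 Compound-dosed mice with transplantable tumor versus matched vehicle controls; endpoint ratio T/C reported.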

[1] = endpoint: mean survival time, dose: 25.0 mg/kg/injection, schedule: Q01DX009 (ip), vehicle: Klucel (hydroxypropylcellulose) (HPC)
[2] = endpoint: mean survival time, dose: 50.0 mg/kg/injection, schedule: Q01DX009 (ip), vehicle: Klucel (hydroxypropylcellulose) (HPC)
[3] = endpoint: mean survival time, dose: 100.0 mg/kg/injection, schedule: Q01DX009 (ip), vehicle: saline with Tween-80
[4] = endpoint: mean survival time, dose: 200.0 mg/kg/injection, schedule: Q01DX009 (ip), vehicle: saline with Tween-80
[5] = endpoint: mean survival time, dose: 100.0 mg/kg/injection, schedule: Q04DX002 (ip), vehicle: saline with Tween-80
[6] = endpoint: mean survival time, dose: 100.0 mg/kg/injection, schedule: Q04DX003 (ip), vehicle: saline with Tween-80
[7] = endpoint: mean survival time, dose: 200.0 mg/kg/injection, schedule: Q04DX003 (ip), vehicle: saline with Tween-80
[8] = endpoint: mean survival time, dose: 400.0 mg/kg/injection, schedule: Q04DX003 (ip), vehicle: saline with Tween-80
[9] = endpoint: mean survival time, dose: 400.0 mg/kg/injection, schedule: Q01DX009 (ip), vehicle: saline with Tween-80
[10] = endpoint: mean survival time, dose: 100.0 mg/kg/injection, schedule: Q01DX001 (ip), vehicle: saline with Tween-80
[11] = endpoint: mean survival time, dose: 200.0 mg/kg/injection, schedule: Q01DX001 (ip), vehicle: saline with Tween-80
[12] = endpoint: mean survival time, dose: 50.0 mg/kg/injection, schedule: Q01DX009 (ip), vehicle: saline with Tween-80
[13] = endpoint: mean survival time, dose: 12.5 mg/kg/injection, schedule: Q01DX001 (ip), vehicle: Klucel (hydroxypropylcellulose) (HPC)

Measured: T/C

c1ccc(N/N=C2/c3ccccc3CC23OC3c2ccccc2)cc1 (configuration not stated)
inactive: [1] 97 % of control | [2] 97 % of control | endpoint: mean survival time, dose: 100.0 mg/kg/injection, schedule: Q01DX009 (ip), vehicle: Klucel (hydroxypropylcellulose) (HPC) 91 % of control | endpoint: mean survival time, dose: 200.0 mg/kg/injection, schedule: Q01DX009 (ip), vehicle: Klucel (hydroxypropylcellulose) (HPC) 97 % of control | endpoint: mean survival time, dose: 400.0 mg/kg/injection, schedule: Q01DX009 (ip), vehicle: Klucel (hydroxypropylcellulose) (HPC) 97 % of control

Nc1nc2c(c(=O)[nH]1)N(C=O)C(CNc1ccc(C(=O)N[C@@H](CCC(=O)O)C(=O)O)cc1)CN2 (some centres not stated)
inactive: endpoint: mean survival time, dose: 67.0 mg/kg/injection, schedule: Q01DX009 (sc), vehicle: other 105 % of control | endpoint: mean survival time, dose: 100.0 mg/kg/injection, schedule: Q01DX009 (sc), vehicle: other 101 % of control | endpoint: mean survival time, dose: 150.0 mg/kg/injection, schedule: Q01DX009 (sc), vehicle: other 101 % of control | endpoint: mean survival time, dose: 225.0 mg/kg/injection, schedule: Q01DX009 (sc), vehicle: other 108 % of control | endpoint: mean survival time, dose: 338.0 mg/kg/injection, schedule: Q01DX009 (sc), vehicle: other 103 % of control

CC/C(=C(/CC)c1ccc(O)cc1)c1ccc(O)cc1
inactive: endpoint: median survival time, dose: 12.5 mg/kg/injection, schedule: Q01DX009 (sc), vehicle: steriod suspending solution 114 % of control and 105 % of control | endpoint: median survival time, dose: 25.0 mg/kg/injection, schedule: Q01DX009 (sc), vehicle: steriod suspending solution 114 % of control and 100 % of control | endpoint: median survival time, dose: 50.0 mg/kg/injection, schedule: Q01DX009 (sc), vehicle: steriod suspending solution 114 % of control and 105 % of control | endpoint: median survival time, dose: 100.0 mg/kg/injection, schedule: Q01DX009 (sc), vehicle: steriod suspending solution 100 % of control

CC(=N)N(C)CC(=O)O
inactive: endpoint: mean survival time, dose: 100.0 mg/kg/injection, schedule: Q04DX002 (ip), vehicle: saline 103 % of control | endpoint: mean survival time, dose: 200.0 mg/kg/injection, schedule: Q04DX002 (ip), vehicle: saline 103 % of control | endpoint: mean survival time, dose: 400.0 mg/kg/injection, schedule: Q04DX002 (ip), vehicle: saline 100 % of control

CN/N=C1\CCC2(C)C(CCC3C4CCC(O)C4(C)CCC32)C1 (configuration not stated)
inactive: endpoint: mean survival time, dose: 12.5 mg/kg/injection, schedule: Q01DX009 (ip), vehicle: Klucel (hydroxypropylcellulose) (HPC) 88 % of control | [1] 89 % of control | [2] 91 % of control and 105 % of control

c1cc[c]([Ge]([O][Ge]([c]2ccccc2)([c]2ccccc2)[c]2ccccc2)([c]2ccccc2)[c]2ccccc2)cc1
inactive: endpoint: mean survival time, dose: 50.0 mg/kg/injection, schedule: Q04DX003 (ip), vehicle: Klucel (hydroxypropylcellulose) (HPC) 96 % of control | endpoint: mean survival time, dose: 100.0 mg/kg/injection, schedule: Q04DX003 (ip), vehicle: Klucel (hydroxypropylcellulose) (HPC) 96 % of control | endpoint: mean survival time, dose: 200.0 mg/kg/injection, schedule: Q04DX003 (ip), vehicle: Klucel (hydroxypropylcellulose) (HPC) 96 % of control

C=C1C(=O)OCC2C(C(=O)O)=CC3C(C)C(C)=CC123 (configuration not stated)
inactive: endpoint: mean survival time, dose: 20.0 mg/kg/injection, schedule: Q04DX003 (ip), vehicle: saline with Tween-80 109 % of control | endpoint: mean survival time, dose: 40.0 mg/kg/injection, schedule: Q04DX003 (ip), vehicle: saline with Tween-80 121 % of control | endpoint: mean survival time, dose: 80.0 mg/kg/injection, schedule: Q04DX003 (ip), vehicle: saline with Tween-80 120 % of control

COc1cccc(NC(=S)/C(=C(\[O-])c2ccc([N+](=O)[O-])cc2)[n+]2ccc(C(C)C)cc2)c1
inactive: [3] 95 % of control | [4] 93 % of control

O=C(O)c1ccc(Cl)cc1Nc1ccc(O)cc1
inactive: endpoint: mean survival time, dose: 25.0 mg/kg/injection, schedule: Q04DX002 (ip), vehicle: saline with Tween-80 96 % of control | endpoint: mean survival time, dose: 50.0 mg/kg/injection, schedule: Q04DX002 (ip), vehicle: saline with Tween-80 116 % of control | [5] 101 % of control and 102 % of control

CCOC(=O)CCC(NC(=O)c1ccccc1NC)C(=O)OCC (configuration not stated)
inactive: [6] 101 % of control | [7] 101 % of control | [8] 103 % of control

CC(C)CCOC(=O)CN(CC(=O)OCCC(C)C)c1ccccc1
inactive: [3] 89 % of control | [6] 95 % of control | [4] 91 % of control | [7] 97 % of control | [9] 97 % of control | [8] 105 % of control

OC1(C2(O)c3ccccc3Oc3ccccc32)c2ccccc2Oc2ccccc21
inactive: endpoint: mean survival time, dose: 100.0 mg/kg/injection, schedule: Q01DX009 (ip), vehicle: saline 99 % of control | endpoint: mean survival time, dose: 200.0 mg/kg/injection, schedule: Q01DX009 (ip), vehicle: saline 97 % of control

CCCCCCCCCC(=O)NC(=S)Nc1cccc(C(C)=O)c1
inactive: [10] 89 % of control | [3] 87 % of control and 95 % of control | [5] 88 % of control and 104 % of control | [6] 93 % of control | [11] 88 % of control | [4] 91 % of control and 109 % of control | endpoint: mean survival time, dose: 200.0 mg/kg/injection, schedule: Q04DX002 (ip), vehicle: saline with Tween-80 92 % of control and 96 % of control | [7] 91 % of control | [9] 95 % of control | endpoint: mean survival time, dose: 400.0 mg/kg/injection, schedule: Q04DX002 (ip), vehicle: saline with Tween-80 88 % of control and 90 % of control | [8] 95 % of control

C/C=C/C(O)C1CCCCC1 (configuration not stated)
inactive: [12] 103 % of control | [3] 98 % of control | [4] 107 % of control

CC(=O)Nc1ccc(C#[N+][S-])cc1
inactive: endpoint: mean survival time, dose: 3.13 mg/kg/injection, schedule: Q01DX001 (ip), vehicle: Klucel (hydroxypropylcellulose) (HPC) 104 % of control | endpoint: mean survival time, dose: 6.25 mg/kg/injection, schedule: Q01DX001 (ip), vehicle: Klucel (hydroxypropylcellulose) (HPC) 97 % of control | [13] 93 % of control

OC1C2CCC1C(N1CCOCC1)CC2 (configuration not stated)
inactive: [12] 103 % of control | [3] 109 % of control | [6] 98 % of control | [4] 97 % of control | [7] 102 % of control

CCc1ccc2ccccc2c1N
inactive: [12] 108 % of control | [3] 110 % of control | [11] 94 % of control | [4] 118 % of control

Cc1ccc(S(=O)(=O)OC2CCCCC2c2ccc(C(F)(F)F)cc2)cc1 (configuration not stated)
inactive: endpoint: mean survival time, dose: 75.0 mg/kg/injection, schedule: Q01DX001 (ip), vehicle: other 96 % of control | endpoint: mean survival time, dose: 150.0 mg/kg/injection, schedule: Q01DX001 (ip), vehicle: other 88 % of control | endpoint: mean survival time, dose: 300.0 mg/kg/injection, schedule: Q01DX001 (ip), vehicle: other 88 % of control

CCCCCCCCCCC[n+]1ccc(C#N)cc1
inactive: endpoint: mean survival time, dose: 9.38 mg/kg/injection, schedule: Q01DX001 (ip), vehicle: saline 105 % of control | endpoint: mean survival time, dose: 18.75 mg/kg/injection, schedule: Q01DX001 (ip), vehicle: saline 98 % of control

N=C1N(c2ccccc2)CCN1c1ccccc1
inactive: endpoint: mean survival time, dose: 6.25 mg/kg/injection, schedule: Q04DX003 (ip), vehicle: saline with Tween-80 94 % of control | endpoint: mean survival time, dose: 12.5 mg/kg/injection, schedule: Q04DX003 (ip), vehicle: saline with Tween-80 92 % of control

C(=C(c1ccccc1)c1ccccc1)=C(c1ccccc1)c1ccccc1
inactive: [3] 93 % of control | [6] 100 % of control | [4] 90 % of control | [7] 97 % of control | [9] 90 % of control | [8] 95 % of control

CCOC(=O)Nc1cc(Nc2ccccc2)c2[nH]cnc2n1
inactive: [13] 96 % of control | endpoint: mean survival time, dose: 25.0 mg/kg/injection, schedule: Q01DX001 (ip), vehicle: Klucel (hydroxypropylcellulose) (HPC) 93 % of control | endpoint: mean survival time, dose: 50.0 mg/kg/injection, schedule: Q01DX001 (ip), vehicle: Klucel (hydroxypropylcellulose) (HPC) 93 % of control | endpoint: mean survival time, dose: 100.0 mg/kg/injection, schedule: Q01DX001 (ip), vehicle: Klucel (hydroxypropylcellulose) (HPC) 93 % of control | endpoint: mean survival time, dose: 200.0 mg/kg/injection, schedule: Q01DX001 (ip), vehicle: Klucel (hydroxypropylcellulose) (HPC) 95 % of control | endpoint: mean survival time, dose: 400.0 mg/kg/injection, schedule: Q01DX001 (ip), vehicle: Klucel (hydroxypropylcellulose) (HPC) 93 % of control

NNC(=O)c1nnc(NN)[nH]c1=O
inactive: endpoint: mean survival time, dose: 100.0 mg/kg/injection, schedule: Q01DX001 (ip), vehicle: carboxymethylcellulose (CMC) 102 % of control | endpoint: mean survival time, dose: 200.0 mg/kg/injection, schedule: Q01DX001 (ip), vehicle: carboxymethylcellulose (CMC) 100 % of control | endpoint: mean survival time, dose: 400.0 mg/kg/injection, schedule: Q01DX001 (ip), vehicle: carboxymethylcellulose (CMC) 93 % of control

O=S(=O)(SC(Cl)(Cl)Cl)c1ccc(Cl)cc1
inactive: endpoint: mean survival time, dose: 12.5 mg/kg/injection, schedule: Q01DX009 (ip), vehicle: saline sonified 103 % of control | endpoint: mean survival time, dose: 25.0 mg/kg/injection, schedule: Q01DX009 (ip), vehicle: saline sonified 102 % of control | endpoint: mean survival time, dose: 25.0 mg/kg/injection, schedule: Q01DX009 (ip), vehicle: saline with Tween-80 103 % of control | endpoint: mean survival time, dose: 50.0 mg/kg/injection, schedule: Q01DX009 (ip), vehicle: saline sonified 102 % of control | [12] 98 % of control | [10] 91 % of control | [3] 98 % of control
